Data reported in PubChem BioAssay (NCI).
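Briefly, cells in 96-well plates were exposed to five compound concentrations for 48 h, and endpoints were estimated by linear interpolation. TGI denotes the concentration required for complete inhibition of growth.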

Columns and labels:
Test in all cases: growth of human tumour cells (NCI), 48 h
[1] = test system: 786-0 renal
[2] = test system: A498 renal
[3] = test system: CCRF-CEM leukemia
[4] = test system: DU-145 prostate
[5] = test system: EKVX NSCLC
[6] = test system: HCC-2998 colon
[7] = test system: HCT-116 colon
[8] = test system: HOP-62 NSCLC
[9] = test system: HT29 colon
[10] = test system: K-562 leukemia
[11] = test system: KM12 colon
[12] = test system: NCI-H226 lung
[13] = test system: OVCAR-4 ovarian
[14] = test system: OVCAR-8 ovarian
[15] = test system: SK-MEL-5 melanoma
[16] = test system: U251 CNS
[17] = test system: UACC-257 melanoma
[18] = test system: UACC-62 melanoma
[19] = test system: MCF7 breast

SMILES	TGI [1] [µM]	TGI [2] [µM]	TGI [3] [µM]	TGI [4] [µM]	TGI [5] [µM]	TGI [6] [µM]	TGI [7] [µM]	TGI [8] [µM]	TGI [9] [µM]	TGI [10] [µM]	TGI [11] [µM]	TGI [12] [µM]	TGI [13] [µM]	TGI [14] [µM]	TGI [15] [µM]	TGI [16] [µM]	TGI [17] [µM]	TGI [18] [µM]	TGI [19] [µM]
NCCCC[C@H](N)C(=O)Nc1ccc(-c2nc3ccccc3s2)cc1	32.9	72.9	23.6	49.1	23.9	81.5	33	62	30.1	36.3	34.9	71.1	> 100	40.1	94.4	29.4	> 100	59.7	
Cc1c(N2CCN(C)CC2)nc2ccc(Cl)cc2c1-c1ccccc1	27.9	25.3	42.2		34.1	> 10	40	36.6	27.7	35.7	28.5		36.9	31.8	28.8	33.1	33	30.3	
COC(=O)c1ccc(N=NN(C)COc2ccc(Br)cc2)cc1		> 100	> 100		> 100	87.7	> 100	> 100	> 100	> 100	> 100	> 100	> 100	> 100	> 100	> 100	> 100	> 100	> 100
O=C1c2ccccc2-c2nnc3c(c21)-c1ccccc1C3	> 100		> 100	> 100	> 100		> 100		> 100		> 100	> 100		> 100	> 100	> 100	> 100	> 100	> 100
CC(=O)Nc1ccc2c3c(cc(O)c2c1)N(C(=O)CCCCCCC(=O)N1CC(CCl)c2c1cc(O)c1cc(NC(C)=O)ccc21)CC3CCl (configuration not stated)	0.0204	< 0.01		< 0.01	0.475				> 100	> 100	12.7		> 100	0.346	< 0.0109			0.013	0.0472
O=C1C(=O)N(c2cccc(C(F)(F)F)c2)C(=S)N1c1ccccc1	> 100	59.5	> 100	> 100	> 100	> 100	> 100	> 100	> 100	> 100	> 100	97.5	> 100	> 100	32	> 100	71.8	31.3	
C=CCN(C(=O)OC(C)(C)C)[C@H](C)C(=O)N[C@@H](C)C(=O)OC	> 100	> 100	> 100	> 100	> 100		> 100	> 100	> 100	> 100	> 100	> 100	> 100	> 100	> 100	> 100		> 100	> 100
COc1ccc(CCCNC(=O)c2cc(OC)c(OC)cc2CCO)cc1OC	> 100	> 100		> 100	> 100	> 100	> 100	> 100	> 100	> 100	> 100	> 100	> 100	> 100	> 100	> 100	> 100	> 100	> 100
CC(C)NC(=O)N(Nc1ccccc1)C(C)(C)C	> 100	> 100	> 100		> 100	> 100	> 100	> 100	> 100	> 100	> 100	> 100	> 100	> 100	> 100	> 100	> 100	> 100	> 100
CC(=O)Nc1c(C)cc2c(nc3n2CCC3OC(C)=O)c1[N+](=O)[O-] (configuration not stated)	> 100	> 100	> 100	> 100	> 100		> 100		> 100	> 100	> 100	> 100	> 100	> 100	> 100	> 100	> 100	> 100	> 100
CCOc1ccc(N/C(=C(/C(Cl)=C(/Cl)N2CCCCC2)[N+](=O)[O-])n2nnc3ccccc32)cc1	39.8	34.9		82.4	36.9	59.2	37.7	42.6		> 100	31.6	58.7			29.9	30.8	38.6	31.6	39.4
O=C(CN1CCOCC1)c1ccc2c(c1)oc(=O)n2CCN1CCOCC1	> 100	> 100	> 100	> 100	> 100		> 100	> 100	> 100	> 100	> 100	> 100		> 100	> 100	> 100			> 100
CC(C)N=C(N)NC#N		> 100	> 100		> 100	> 100	> 100	> 100	> 100	> 100	> 100	> 100	> 100	> 100			> 100	> 100	
CCCCCCCCCCCCCCCCCCNC(=S)/N=C\C1=C(O)c2ccccc2C1=O	21.2	40	21.5	19.2	28	6.4	15.3	22.2	25		22.7	25.6		32	34.7	18.3	33.6		29.5
O=c1ccn(COC(COCc2ccccc2)COCc2ccccc2)c(=O)[nH]1		> 100	> 100	> 100		> 100	> 100	> 100	> 100	> 100	> 100	> 100	> 100	> 100	> 100	> 100	> 100	> 100	> 100
COc1cc(-c2cc(=O)c3c(O)c(CC=C(C)C)c(O)cc3o2)ccc1O		> 50	> 50	> 50	32.5		> 50	> 50	> 50	> 50		> 50	43.6	> 50	> 50	> 50	> 50	> 50	> 50
COC1C(O)C(n2ncc3c(SC)nc(SC)nc32)OC1C(O)CO (configuration not stated)		> 100	> 100		> 100	> 100	> 100	> 100	> 100	> 100	> 100	> 100	> 100	> 100	> 100	> 100	> 55.8	> 100	> 100
Nc1nc2ncc(CNc3ccc(C(=O)NC(CCC(=O)O)C(=O)O)cc3)nc2c(=O)[nH]1 (configuration not stated)	> 100		> 100		> 100	> 100		> 100	> 100	> 100	> 100	> 100	> 100	> 100	> 100	> 100	> 100	> 100	> 100
COC1CN(C)C(=Nc2cccc3ccccc23)S1 (configuration not stated)	> 10		> 10	> 10		> 10	> 10	> 10	> 10	> 10	> 10		> 10	> 10	> 10	> 10	> 10	> 10	> 10
CC(C)NC(=O)OCc1c(CO)c2c(n1C)-c1ccccc1CC2		> 100	45.2		> 100	57.4	34	> 93.3	54.5	46	> 86.8	> 64.5	73	57.6	71	> 61.4	> 100	36.6	> 100
S=C1CCSc2c(ccc3ccccc23)N1	> 100		> 100	> 100	> 100		> 100	> 100	> 100	> 100	> 100	> 100	> 100	> 100	> 100	> 100	> 100	> 100	> 100
C/C(CC(O)(/C=N/O)c1ccccc1)=N/O (configuration not stated)	> 100		> 100		> 100	> 100	> 100	> 100	> 100	> 100	> 100	> 100	> 100	> 100	> 100	> 100	> 100		> 100
